# According to PubChem BioAssay (NCI):
#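 How tested: cells in 96-well plates exposed to compound for 48 hours at five concentrations. At the TGI there is no net growth.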
# What was measured:
# Experiment in all cases: DTP human tumour cell line panel, 48 h
# U251 CNS = system: U251 CNS
# SW-620 colon = system: SW-620 colon
# SK-MEL-28 melanoma = system: SK-MEL-28 melanoma
# LXFL 529 NSCLC = system: LXFL 529 NSCLC
# UACC-257 melanoma = system: UACC-257 melanoma
# M19-MEL melanoma = system: M19-MEL melanoma
# HT29 colon = system: HT29 colon
# K-562 leukemia = system: K-562 leukemia
# SR leukemia = system: SR leukemia
# COLO 205 colon = system: COLO 205 colon
# SNB-75 CNS = system: SNB-75 CNS
# HOP-92 NSCLC = system: HOP-92 NSCLC
# DLD-1 colon = system: DLD-1 colon
# UO-31 renal = system: UO-31 renal
# OVCAR-3 ovarian = system: OVCAR-3 ovarian
# EKVX NSCLC = system: EKVX NSCLC
# OVCAR-8 ovarian = system: OVCAR-8 ovarian
# LOX IMVI melanoma = system: LOX IMVI melanoma
# HCT-116 colon = system: HCT-116 colon
# A549 NSCLC = system: A549 NSCLC
# HL-60(TB) leukemia = system: HL-60(TB) leukemia
# HOP-62 NSCLC = system: HOP-62 NSCLC
# NCI-H460 lung = system: NCI-H460 lung
# SF-268 CNS = system: SF-268 CNS
# UACC-62 melanoma = system: UACC-62 melanoma
# CCRF-CEM leukemia = system: CCRF-CEM leukemia
# NCI-H226 lung = system: NCI-H226 lung
# HCC-2998 colon = system: HCC-2998 colon
# RXF 393 renal = system: RXF 393 renal
# NCI-H23 lung = system: NCI-H23 lung
# DMS 114 small cell lung = system: DMS 114 small cell lung
# OVCAR-5 ovarian = system: OVCAR-5 ovarian
# IGROV1 ovarian = system: IGROV1 ovarian
# TK-10 renal = system: TK-10 renal
# SNB-19 CNS = system: SNB-19 CNS
# SF-539 CNS = system: SF-539 CNS
# NCI-H522 lung = system: NCI-H522 lung
# KM12 colon = system: KM12 colon
# MALME-3M melanoma = system: MALME-3M melanoma
# M14 melanoma = system: M14 melanoma
# XF 498 CNS = system: XF 498 CNS
# SN12C renal = system: SN12C renal
# SK-MEL-5 melanoma = system: SK-MEL-5 melanoma
# SK-MEL-2 melanoma = system: SK-MEL-2 melanoma
# 786-0 renal = system: 786-0 renal
# KM20L2 colon = system: KM20L2 colon
# MOLT-4 leukemia = system: MOLT-4 leukemia
# HCT-15 colon = system: HCT-15 colon
# DMS 273 small cell lung = system: DMS 273 small cell lung
# RPMI-8226 leukemia = system: RPMI-8226 leukemia
# SK-OV-3 ovarian = system: SK-OV-3 ovarian
# ACHN renal = system: ACHN renal
# OVCAR-4 ovarian = system: OVCAR-4 ovarian
# CAKI-1 renal = system: CAKI-1 renal
# A498 renal = system: A498 renal
# SNB-78 CNS = system: SNB-78 CNS
# HOP-18 NSCLC = system: HOP-18 NSCLC
# SF-295 CNS = system: SF-295 CNS
smiles,measurement,setting,value
O=C1OC2(OC2c2ccccc2)c2ccccc21 (centres undefined),TGI,U251 CNS,> 100 µM
same,TGI,SW-620 colon,> 100 µM
same,TGI,SK-MEL-28 melanoma,> 100 µM
same,TGI,LXFL 529 NSCLC,> 100 µM
same,TGI,UACC-257 melanoma,> 100 µM
same,TGI,M19-MEL melanoma,> 100 µM
same,TGI,HT29 colon,> 100 µM
same,TGI,K-562 leukemia,> 100 µM
same,TGI,SR leukemia,> 100 µM
same,TGI,COLO 205 colon,> 100 µM
same,TGI,SNB-75 CNS,> 100 µM
same,TGI,HOP-92 NSCLC,> 100 µM
same,TGI,DLD-1 colon,> 100 µM
same,TGI,UO-31 renal,> 100 µM
same,TGI,OVCAR-3 ovarian,> 100 µM
same,TGI,EKVX NSCLC,> 100 µM
same,TGI,OVCAR-8 ovarian,> 100 µM
same,TGI,LOX IMVI melanoma,> 100 µM
same,TGI,HCT-116 colon,> 100 µM
same,TGI,A549 NSCLC,> 100 µM
same,TGI,HL-60(TB) leukemia,> 100 µM
same,TGI,HOP-62 NSCLC,> 100 µM
same,TGI,NCI-H460 lung,> 100 µM
same,TGI,SF-268 CNS,> 100 µM
same,TGI,UACC-62 melanoma,> 100 µM
same,TGI,CCRF-CEM leukemia,> 100 µM
same,TGI,NCI-H226 lung,> 100 µM
same,TGI,HCC-2998 colon,> 100 µM
same,TGI,RXF 393 renal,> 100 µM
same,TGI,NCI-H23 lung,> 100 µM
same,TGI,DMS 114 small cell lung,11 µM
same,TGI,OVCAR-5 ovarian,> 100 µM
same,TGI,IGROV1 ovarian,> 100 µM
same,TGI,TK-10 renal,> 100 µM
same,TGI,SNB-19 CNS,> 100 µM
same,TGI,SF-539 CNS,> 100 µM
same,TGI,NCI-H522 lung,> 100 µM
same,TGI,KM12 colon,> 100 µM
same,TGI,MALME-3M melanoma,> 100 µM
same,TGI,M14 melanoma,> 100 µM
same,TGI,XF 498 CNS,> 100 µM
same,TGI,SN12C renal,> 100 µM
same,TGI,SK-MEL-5 melanoma,> 100 µM
same,TGI,SK-MEL-2 melanoma,> 100 µM
same,TGI,786-0 renal,> 100 µM
same,TGI,KM20L2 colon,> 100 µM
same,TGI,MOLT-4 leukemia,> 100 µM
same,TGI,HCT-15 colon,> 100 µM
same,TGI,DMS 273 small cell lung,> 100 µM
same,TGI,RPMI-8226 leukemia,> 100 µM
same,TGI,SK-OV-3 ovarian,> 100 µM
same,TGI,ACHN renal,> 100 µM
O=C1c2ccccc2CCCCCCCCCCC12OCCCO2,TGI,U251 CNS,> 100 µM
same,TGI,SK-MEL-28 melanoma,> 100 µM
same,TGI,LXFL 529 NSCLC,> 100 µM
same,TGI,OVCAR-4 ovarian,> 100 µM
same,TGI,UACC-257 melanoma,72.7 µM
same,TGI,CAKI-1 renal,95.7 µM
same,TGI,M19-MEL melanoma,> 100 µM
same,TGI,HT29 colon,42.9 µM
same,TGI,K-562 leukemia,> 100 µM
same,TGI,A498 renal,97.5 µM
same,TGI,COLO 205 colon,38.1 µM
same,TGI,SNB-75 CNS,> 100 µM
same,TGI,SNB-78 CNS,> 100 µM
same,TGI,DLD-1 colon,> 100 µM
same,TGI,UO-31 renal,> 100 µM
same,TGI,OVCAR-3 ovarian,> 100 µM
same,TGI,OVCAR-8 ovarian,> 100 µM
same,TGI,LOX IMVI melanoma,84.8 µM
same,TGI,HCT-116 colon,38.3 µM
same,TGI,A549 NSCLC,91.9 µM
same,TGI,HOP-18 NSCLC,> 100 µM
same,TGI,HL-60(TB) leukemia,40.1 µM
same,TGI,HOP-62 NSCLC,> 100 µM
same,TGI,NCI-H460 lung,> 100 µM
same,TGI,SF-268 CNS,96.7 µM
same,TGI,UACC-62 melanoma,> 100 µM
same,TGI,CCRF-CEM leukemia,83.3 µM
same,TGI,NCI-H226 lung,97.2 µM
same,TGI,HCC-2998 colon,68.2 µM
same,TGI,RXF 393 renal,33.7 µM
same,TGI,NCI-H23 lung,> 100 µM
same,TGI,DMS 114 small cell lung,37.5 µM
same,TGI,OVCAR-5 ovarian,66.8 µM
same,TGI,SF-295 CNS,> 100 µM
same,TGI,IGROV1 ovarian,> 100 µM
same,TGI,TK-10 renal,> 100 µM
same,TGI,SNB-19 CNS,77.5 µM
same,TGI,SF-539 CNS,> 100 µM
same,TGI,NCI-H522 lung,67.2 µM
same,TGI,KM12 colon,> 100 µM
same,TGI,MALME-3M melanoma,77.8 µM
same,TGI,M14 melanoma,> 100 µM
same,TGI,SN12C renal,> 100 µM
same,TGI,SK-MEL-5 melanoma,83.8 µM
same,TGI,SK-MEL-2 melanoma,68.3 µM
same,TGI,786-0 renal,> 100 µM
same,TGI,KM20L2 colon,71.7 µM
same,TGI,MOLT-4 leukemia,43.8 µM
same,TGI,HCT-15 colon,92.3 µM
same,TGI,DMS 273 small cell lung,> 100 µM
same,TGI,RPMI-8226 leukemia,40 µM
same,TGI,SK-OV-3 ovarian,> 100 µM
same,TGI,ACHN renal,> 100 µM
COc1cccc(C2CC(C)=Nc3c(ccc4c3C(=O)c3ccccc3C4=O)N2)c1O (centres undefined),TGI,U251 CNS,> 100 µM
same,TGI,SW-620 colon,> 100 µM
same,TGI,LXFL 529 NSCLC,> 100 µM
same,TGI,M19-MEL melanoma,> 100 µM
same,TGI,HT29 colon,> 100 µM
same,TGI,K-562 leukemia,> 100 µM
same,TGI,A498 renal,> 100 µM
same,TGI,COLO 205 colon,> 100 µM
same,TGI,SNB-75 CNS,> 100 µM
same,TGI,SNB-78 CNS,> 100 µM
same,TGI,HOP-92 NSCLC,> 100 µM
same,TGI,DLD-1 colon,> 100 µM
same,TGI,UO-31 renal,> 100 µM
same,TGI,OVCAR-3 ovarian,95.1 µM
same,TGI,EKVX NSCLC,> 100 µM
same,TGI,OVCAR-8 ovarian,> 100 µM
same,TGI,HCT-116 colon,> 100 µM
same,TGI,A549 NSCLC,> 100 µM
same,TGI,HL-60(TB) leukemia,> 100 µM
same,TGI,HOP-62 NSCLC,> 100 µM
same,TGI,NCI-H460 lung,> 100 µM
same,TGI,UACC-62 melanoma,> 100 µM
same,TGI,NCI-H226 lung,> 100 µM
same,TGI,HCC-2998 colon,> 100 µM
same,TGI,NCI-H23 lung,> 100 µM
same,TGI,DMS 114 small cell lung,> 100 µM
same,TGI,OVCAR-5 ovarian,> 100 µM
same,TGI,IGROV1 ovarian,> 100 µM
same,TGI,SNB-19 CNS,> 100 µM
same,TGI,KM12 colon,> 100 µM
same,TGI,MALME-3M melanoma,> 100 µM
same,TGI,M14 melanoma,> 100 µM
same,TGI,SN12C renal,> 100 µM
same,TGI,786-0 renal,> 100 µM
same,TGI,KM20L2 colon,> 100 µM
same,TGI,HCT-15 colon,> 100 µM
same,TGI,RPMI-8226 leukemia,> 100 µM
same,TGI,ACHN renal,> 100 µM
O=C(Cc1ccccc1)NN1C(=O)C(Cl)C1c1ccc(O)cc1 (centres undefined),TGI,U251 CNS,> 100 µM
same,TGI,SW-620 colon,> 100 µM
same,TGI,SK-MEL-28 melanoma,> 100 µM
same,TGI,UACC-257 melanoma,> 100 µM
same,TGI,CAKI-1 renal,> 100 µM
same,TGI,M19-MEL melanoma,> 100 µM
same,TGI,HT29 colon,> 100 µM
same,TGI,K-562 leukemia,> 100 µM
same,TGI,SR leukemia,> 100 µM
same,TGI,COLO 205 colon,> 100 µM
same,TGI,SNB-75 CNS,> 100 µM
same,TGI,DLD-1 colon,> 100 µM
same,TGI,UO-31 renal,> 100 µM
same,TGI,OVCAR-3 ovarian,> 100 µM
same,TGI,EKVX NSCLC,> 100 µM
same,TGI,OVCAR-8 ovarian,> 100 µM
same,TGI,LOX IMVI melanoma,> 100 µM
same,TGI,HCT-116 colon,> 100 µM
same,TGI,A549 NSCLC,> 100 µM
same,TGI,HOP-18 NSCLC,> 100 µM
same,TGI,HL-60(TB) leukemia,> 100 µM
same,TGI,HOP-62 NSCLC,> 100 µM
same,TGI,NCI-H460 lung,> 100 µM
same,TGI,SF-268 CNS,> 100 µM
same,TGI,UACC-62 melanoma,> 100 µM
same,TGI,CCRF-CEM leukemia,> 100 µM
same,TGI,NCI-H226 lung,> 100 µM
same,TGI,HCC-2998 colon,> 100 µM
same,TGI,RXF 393 renal,> 100 µM
same,TGI,NCI-H23 lung,> 100 µM
same,TGI,DMS 114 small cell lung,> 100 µM
same,TGI,OVCAR-5 ovarian,> 100 µM
same,TGI,SF-295 CNS,> 100 µM
same,TGI,IGROV1 ovarian,> 100 µM
same,TGI,TK-10 renal,> 100 µM
same,TGI,SNB-19 CNS,> 100 µM
same,TGI,NCI-H522 lung,> 100 µM
same,TGI,KM12 colon,> 100 µM
same,TGI,MALME-3M melanoma,> 100 µM
same,TGI,M14 melanoma,> 100 µM
same,TGI,SN12C renal,> 100 µM
same,TGI,SK-MEL-5 melanoma,> 100 µM
same,TGI,SK-MEL-2 melanoma,> 100 µM
same,TGI,786-0 renal,> 100 µM
same,TGI,KM20L2 colon,> 100 µM
same,TGI,MOLT-4 leukemia,> 100 µM
same,TGI,HCT-15 colon,> 100 µM
same,TGI,DMS 273 small cell lung,> 100 µM
same,TGI,RPMI-8226 leukemia,> 100 µM
same,TGI,SK-OV-3 ovarian,> 100 µM
same,TGI,ACHN renal,> 100 µM
